{
  "source": "ChEMBL document CHEMBL1770098",
  "about": "“Pyridine-derived thiosemicarbazones and their tin(IV) complexes with antifungal activity against Candida spp” (2011)",
  "assay_type_in_all_cases": "functional",
  "key": {"Pichia kudriavzevii": {"tested_on": "Pichia kudriavzevii", "assay": "Antifungal activity against Candida krusei ATCC 200298 after 24 hrs", "conditions": "ATCC 200298, 24 h"}, "Candida albicans": {"tested_on": "Candida albicans", "assay": "Antifungal activity against Candida albicans ATCC 18804 after 24 hrs", "conditions": "ATCC 18804, 24 h"}, "Nakaseomyces glabratus": {"tested_on": "Nakaseomyces glabratus", "assay": "Antifungal activity against Candida glabrata ATCC 90030 after 24 hrs", "conditions": "ATCC 90030, 24 h"}, "Candida parapsilosis": {"tested_on": "Candida parapsilosis", "assay": "Antifungal activity against Candida parapsilosis […] after 24 hrs", "conditions": "Lodderomyces parapsilosis"}},
  "data": [
    {"smiles": "OC(Cn1cncn1)(Cn1cncn1)c1ccc(F)cc1F", "note": "[FLUCONAZOLE]", "values": [
      {"measurement": "MIC", "setting": "Pichia kudriavzevii", "result": 104, "unit": "µM"},
      {"measurement": "MIC", "setting": "Candida albicans", "result": 6.53, "unit": "µM"},
      {"measurement": "MIC", "setting": "Nakaseomyces glabratus", "result": 6.53, "unit": "µM"},
      {"measurement": "MIC", "setting": "Candida parapsilosis", "result": 6.53, "unit": "µM"}
    ]},
    {"smiles": "O=[N+]([O-])c1ccccc1NC(=S)N/N=C(\\c1ccccc1)c1ccccn1", "values": [
      {"measurement": "MIC", "setting": "Pichia kudriavzevii", "result": 21.2, "unit": "µM"},
      {"measurement": "MIC", "setting": "Candida albicans", "result": 21.2, "unit": "µM"},
      {"measurement": "MIC", "setting": "Nakaseomyces glabratus", "result": 21.2, "unit": "µM"},
      {"measurement": "MIC", "setting": "Candida parapsilosis", "result": 42.4, "unit": "µM"}
    ]},
    {"smiles": "C/C(=N\\NC(=S)Nc1ccccc1F)c1ccccn1", "values": [
      {"measurement": "MIC", "setting": "Pichia kudriavzevii", "result": 13.9, "unit": "µM"},
      {"measurement": "MIC", "setting": "Candida albicans", "result": 13.9, "unit": "µM"},
      {"measurement": "MIC", "setting": "Nakaseomyces glabratus", "result": 6.94, "unit": "µM"},
      {"measurement": "MIC", "setting": "Candida parapsilosis", "result": 27.7, "unit": "µM"}
    ]},
    {"smiles": "C/C(=N\\NC(=S)Nc1ccccc1Cl)c1ccccn1", "values": [
      {"measurement": "MIC", "setting": "Pichia kudriavzevii", "result": 13.1, "unit": "µM"},
      {"measurement": "MIC", "setting": "Candida albicans", "result": 13.1, "unit": "µM"},
      {"measurement": "MIC", "setting": "Nakaseomyces glabratus", "result": 13.1, "unit": "µM"},
      {"measurement": "MIC", "setting": "Candida parapsilosis", "result": 26.2, "unit": "µM"}
    ]},
    {"smiles": "C/C(=N\\NC(=S)Nc1ccccc1[N+](=O)[O-])c1ccccn1", "values": [
      {"measurement": "MIC", "setting": "Pichia kudriavzevii", "result": 6.34, "unit": "µM"},
      {"measurement": "MIC", "setting": "Candida albicans", "result": 6.34, "unit": "µM"},
      {"measurement": "MIC", "setting": "Nakaseomyces glabratus", "result": 6.34, "unit": "µM"},
      {"measurement": "MIC", "setting": "Candida parapsilosis", "result": 6.34, "unit": "µM"}
    ]},
    {"smiles": "S=C(N/N=C(\\c1ccccc1)c1ccccn1)Nc1ccccc1Cl", "values": [
      {"measurement": "MIC", "setting": "Pichia kudriavzevii", "result": 21.8, "unit": "µM"},
      {"measurement": "MIC", "setting": "Candida albicans", "result": 21.8, "unit": "µM"},
      {"measurement": "MIC", "setting": "Nakaseomyces glabratus", "result": 21.8, "unit": "µM"},
      {"measurement": "MIC", "setting": "Candida parapsilosis", "result": 43.6, "unit": "µM"}
    ]},
    {"smiles": "Fc1ccccc1NC(=S)N/N=C(\\c1ccccc1)c1ccccn1", "values": [
      {"measurement": "MIC", "setting": "Pichia kudriavzevii", "result": 45.7, "unit": "µM"},
      {"measurement": "MIC", "setting": "Candida albicans", "result": 45.7, "unit": "µM"},
      {"measurement": "MIC", "setting": "Nakaseomyces glabratus", "result": 11.4, "unit": "µM"},
      {"measurement": "MIC", "setting": "Candida parapsilosis", "result": 45.7, "unit": "µM"}
    ]}
  ]
}
